Paper PMC6321145 (Molecules, 2018)

What was measured:
[1] = biological target: AChE (Homo sapiens, UniProt P22303); test: AChE inhibition (data not shown); assay type: biochemical
[2] = biological target: T1, Aβ1–42 fibrils (Homo sapiens, UniProt P05067); test: TEM assay of Aβ1–42 fibrils; assay type: biochemical; conditions: compound 20 μM
T1 construct: Aβ1–42 (Sigma, St. Louis, MO, USA; counterion, NaOH) stock solution was prepared by dissolving Aβ1–42 peptide in ammonium hydroxide; purchased Sigma
T1 sequence (P05067 672-713): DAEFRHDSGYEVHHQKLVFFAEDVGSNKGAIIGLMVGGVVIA
Protocol: To further complement the ThT binding assay, A transmission electron microscopy (TEM) assay was employed to monitor and clarify the effect of compound 6b1 on Aβ1−42 aggregation.
The ability of compound 6b1 to disaggregate self-induced Aβ1–42 aggregation fibrils was also investigated. Aβ1–42 fibrils were prepared by incubating fresh Aβ1–42 for 24 h at 37 °C, and the test compound was added to the sample and incubated for another 24 h at 37 °C. Then the sample was analyzed by ThT binding assay and TEM assay.
Aβ1–42 peptide (Sigma) was dissolved in 20 mM phosphate buffer (pH 7.4) at 4 °C to 100 μM before use.
Aβ1–42 was incubated at 37 °C for 24 h. Then, 40 μM tested compound was added and incubated at 37 °C for another 24 h. The final concentrations of Aβ1–42 and the compounds were 50 μM and 20 μM, respectively. After incubation, aliquots (5 μL) of the samples were placed on a carbon-coated copper/rhodium grid for 2 min at room temperature. Each grid was stained with uranyl acetate (1%, 5 μL) for 2 min. Excess staining solution was removed and the specimen was transferred for imaging with transmission electron microscopy (JEOL JEM-1400, Tokyo, Japan).

[3] = biological target: T2, Aβ1–42 (Homo sapiens, UniProt P05067); test: Inhibition of self-induced Aβ1–42 aggregation (ThT fluorescence assay); assay type: biochemical
T2 construct: Aβ1–42 (Sigma, St. Louis, MO, USA; counterion, NaOH) stock solution was prepared by dissolving Aβ1–42 peptide in ammonium hydroxide; purchased Sigma
T2 sequence (P05067 672-713): as above
Protocol: The formation and aggregation of Aβ1–42 in the brain leads to neurotoxicity in AD. In order to evaluate the activity of our new synthetic compounds to inhibit Aβ1–42 self-induced aggregation, the thioflavin (ThT) fluorescence assay was performed.
All ThT experiments were performed according to our previously published methods. Aβ1–42 (Sigma, St. Louis, MO, USA; counterion, NaOH) stock solution was prepared by dissolving Aβ1–42 peptide in ammonium hydroxide (1% v/v), and diluting with 20 mM phosphate buffer (pH 7.4) to 100 μM. The tested compounds were firstly dissolved in DMSO at a concentration of 10 mM, and then diluted with 20 mM phosphate buffer (pH 7.4) to 40 μM.
For the inhibition of self-induced Aβ1–42 aggregation. Aβ1–42 peptide (2 μL, 50 μM, final concentration) with the tested compound (2 μL, 20 μM, final concentration) or 20 mM phosphate buffer (2 μL) was incubated in 20 mM phosphate buffer (pH 7.4) at 37 °C for 72 h. After incubation, the samples were diluted to a final volume of 36 μL with 50 mM glycine-NaOH buffer (pH 8.5) containing 5 μM Thioflavin T. Fluorescence signal was measured (excitation wavelength 450 nm, emission wavelength 485 nm, and slit widths set to 5 nm) on a monochromator-based multimode microplate reader ([…] M1000, TECAN, Hombrechtikon, Switzerland), adapted for 384-well microtiter plates. […] Each compound was examined in triplicate.

[4] = test system: SH-SY5Y cells; test: Cellular ROS detection (DCFH-DA) in SH-SY5Y cells treated with t-BuOOH; assay type: cell-based, human; conditions: compound 2.5 μM; 0.1 mM t-BuOOH; compared with Trolox
Protocol: To further investigate their antioxidant activity in SH-SY5Y cells, cellular ROS detection assay based on dichlorofluorescein diacetate (DCFH-DA) was performed. with Trolox and N-acetyl-L-cysteine (NAC) as reference compounds.
SH-SY5Y cells were maintained in Dulbecco’s modified Eagle’s medium (DEME) and supplemented with 1 mM glutamine, 10% fetal calf serum, 100 U/mL penicillin, and 100 μg/mL streptomycin. The cultures were maintained at 37 °C in a humidified incubator containing 5% CO2 and were passaged twice weekly.
The antioxidant activity of the compounds in SH-SY5Y cells were tested with the fluorescent probe (2′,7′-dichlorofluorescein diacetate, DCFH-DA) as reported with some variation. SH-SY5Y cells were sub-cultured in 96-well plates at a seeding density of 1 × 10^4 cells per well for 24 h, then the medium was removed, the tested compounds (2.5 μM) was added and incubated for another 24 h at 37 °C. After that, the cells were washed with PBS and incubated with 5 μM DCFH-DA in PBS at 37 °C in 5% CO2 for 30 min. Then DCFH-DA was removed, the cells were washed three times and incubated with 0.1 mM t-BuOOH in PBS for 30 min. After the incubation, the cell fluorescence from each well was measured at 485 nm excitation and 535 nm emission with a monochromator based multimode microplate reader ([…] M1000).

[5] = test system: mice; test: Step-down passive avoidance test, scopolamine-induced memory impairment; assay type: in vivo
Protocol: A step-down passive avoidance test was used to assess learning and memory in mice. The apparatus (Shanghai XinRuan, Shanghai, China) consisted of two identically sized compartments, with a guillotine door to separate light and dark. Illumination was available in the light box through LED lights at 250 lux. The mice underwent two separate trials: a training trial and a test trial 24 h later. For training trial, mice were initially placed in the light compartment and were allowed to explore the environment freely for 5 min so that they can be familiar with the environment. Then the door was opened, the mice tried to enter the dark compartment since they preferred to stay in dark place. As soon as the mice came into the dark compartment, an electrical shock was delivered through the steel rods. The training lasted for 5 min. […] The test trial was preformed after 24 h. The mice were placed into the light compartment and the door was opened. The time that the mouse spent to enter the dark compartment was recorded as the latency. The numbers that the mouse entered the dark compartment during 5 min were measured as error numbers.

[6] = biological target: T2, Aβ1–42; test: Inhibition of Cu^2+-induced Aβ1–42 aggregation (ThT-binding assay); assay type: biochemical; conditions: [Aβ] = 20 μM, [Cu^2+] = 20 μM, [compound] = 40 μM; 37 °C, 24 h
Protocol: To investigate the ability of compound 6b1 to inhibit Cu^2+-induced Aβ1–42 aggregation, the ThT-binding assay was performed.
Aβ was diluted in […] (pH 6.6) with […]. The mixture of the peptide (10 μL, 20 μM, final concentration) with or without copper (10 μL, 20 μM, final concentration) and the test compound (10 μL, 40 μM, final concentration) was incubated at 37 °C for 24 h. The 30 μL of the sample was diluted to a final volume of 200 μL with 50 mM glycine-NaOH buffer (pH 8.0) containing thioflavin T (5 μM). The detection method was the same as that of self-induced Aβ aggregation experiment.

AChE, sequence (P22303 32-614): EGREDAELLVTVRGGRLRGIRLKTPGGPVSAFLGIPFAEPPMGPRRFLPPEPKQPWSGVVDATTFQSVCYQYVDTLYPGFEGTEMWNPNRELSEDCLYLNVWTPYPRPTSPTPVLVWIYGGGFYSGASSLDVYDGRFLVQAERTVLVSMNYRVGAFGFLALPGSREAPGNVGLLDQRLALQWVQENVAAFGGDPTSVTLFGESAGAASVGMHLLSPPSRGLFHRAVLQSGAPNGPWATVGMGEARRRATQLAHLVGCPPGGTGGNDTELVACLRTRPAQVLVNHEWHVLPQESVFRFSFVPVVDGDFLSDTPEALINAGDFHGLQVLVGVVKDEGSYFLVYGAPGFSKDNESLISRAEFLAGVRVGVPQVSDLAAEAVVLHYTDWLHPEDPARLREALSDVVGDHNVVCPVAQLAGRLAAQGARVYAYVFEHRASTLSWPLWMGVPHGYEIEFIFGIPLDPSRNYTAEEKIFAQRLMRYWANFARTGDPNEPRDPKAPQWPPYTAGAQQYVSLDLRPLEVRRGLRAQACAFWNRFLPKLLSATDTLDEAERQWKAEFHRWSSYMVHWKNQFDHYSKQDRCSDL

CCN(CC)c1ccc(/C=C/c2cc(NCCCN(C)C)c3ccccc3n2)cc1 [Compound 6b1, (E)-N^1-(2-(4-(Diethylamino)styryl)quinolin-4-yl)-N^3,N^3-dimethylpropane-1,3-diamine]
Inhibitory activity toward AChE [1]: weak | TEM: Aβ1–42 fibril formation in presence of compound ([2]; 37 °C, 24 h): only fewer thin fibrils and small bulk aggregates | TEM: disaggregation of Aβ1–42 fibrils ([2]; preformed fibrils, 24 h at 37 °C): could disaggregate more Aβ1–42 fibrils than resveratrol | IC50 ([3]; ThT fluorescence method, mean ± SD of three experiments, read-out: IC50 against self-induced Aβ1–42 aggregation): 4.5 ± 0.7 µM | inhibition at 20 µM ([3]; inhibitor 20 μM, Aβ1–42 50 μM, ThT, 37 °C, 72 h, mean ± SD): 95.3 ± 1.2% | Antioxidant activity in SH-SY5Y cells (ROS generation, DCFH-DA fluorescence) [4]: more antioxidant activity than Trolox | Improvement of memory impairment compared with model group ([5]; 4.0 mg/kg (low dose)): didn’t exhibit significant improvement | Latency time ([5]; 16.0 mg/kg (high dose)): 182 s | Number of errors ([5]; 16.0 mg/kg (high dose)): 2.72 | Inhibition of Cu^2+-induced Aβ aggregation [6]: 85.8%
